According to ChEMBL document CHEMBL5233288, “Ginkgo Biflavones Cause p53 Wild-Type Dependent Cell Death in a Transcription-Independent Manner of p53” (J Nat Prod, 2023):
The source made the active and inactive calls. The calls are words filed in the database; no cut-off is given here.

What was measured:
HCT-116 [1] = test: Induction of cell cycle arrest in human HCT-116 cells expressing wild type p53 assessed as accumulation of cells at S phase at 20 uM incubated for 24 hrs by PI staining based flow cytometry (reference value: 0.52 to 3.83%); format: functional
HCT-116 [2] = test: Upregulation of p53 protein expression in human HCT-116 cells expressing wild type p53 at 20 uM by western blot analysis; format: functional, cell-based; conditions: time 0.5-16 hrs, TDE = time-dependent effect
HCT-116 [3] = test: Induction of apoptosis in human HCT-116 cells expressing wild type p53 assessed as late apoptotic cells at 20 uM incubated for 48 hrs by Annexin V-FITC/PI staining based flow cytometry (reference value: 5.37%); format: functional
HCT-116 [4] = test: Increase in mitochondrial complex I activity in human HCT-116 cells at 20 uM incubated for 24 hrs; format: functional, cell-based
HCT-116 [5] = test: Cytotoxicity against human HCT-116 cells assessed as reduction in cell viability at 10 uM incubated for 72 hrs in presence of autophagy inhibitor, 3-methyladenine by resazurin-based analysis; format: functional
HCT-116 [6] = test: Upregulation of p21 protein expression in human HCT-116 cells at 20 uM incubated for 24 hrs by western blot analysis; format: functional, cell-based
HCT-116 [7] = test: Induction of cell cycle arrest in human HCT-116 cells expressing wild type p53 assessed as accumulation of cells at S phase at 5 uM incubated for 24 hrs by PI staining based flow cytometry (reference value: 0.52 to 3.83%); format: functional
HCT-116 [8] = test: Upregulation of p53 protein expression in human HCT-116 cells expressing wild type p53 at 20 uM incubated for 24 hrs by western blot analysis; format: functional, cell-based
RKO = test: Cytotoxicity against human RKO cells expressing wild type p53 assessed as induction of cell death at 20 uM incubated for 72 hrs by resazurin based analysis; format: functional
HCT-116 [9] = test: Induction of intracellular ROS generation in human HCT-116 cells at 20 uM incubated for 24 hrs by DCFH-DA staining based fluorescence analysis; format: functional, cell-based
HCT-116 [10] = test: Cytotoxicity against human HCT-116 cells deficit of p53 expression assessed as induction of cell death at 20 uM incubated for 72 hrs by resazurin based analysis; format: functional
HCT-116 [11] = test: Induction of ferroptosis in human HCT-116 cells assessed as increase in iron content at 20 uM incubated for 24 hrs; format: functional, cell-based
HCT-116 [12] = test: Antitumor activity against human HCT-116 cells xenografted in BALB/c nude mouse assessed as reduction in tumor volume at 10 mg/kg, ip qd for 12 days and measured every 2 days; format: functional, organism-based; conditions: time 12.0 day
HCT-116 [13] = test: Potentiation of 5-FU-induced antitumor activity against human HCT-116 cells xenografted in BALB/c nude mouse assessed as reduction in tumor volume at 10 mg/kg, ip qd for 12 days and administered with 5-FU at 30 mg/kg, ip once every 3 days for 12 days and measured every 2 days; format: functional, organism-based; conditions: time 12.0 day
[14] = Toxicity against BALB/c nude mouse xenografted with human HCT-116 cells assessed as body weight loss at 10 mg/kg, ip qd for 12 days and measured every 2 days; format: organism-based; conditions: in vivo, 288 h, time 12 day
HCT-116 [15] = test: Antitumor activity against human HCT-116 cells xenografted in BALB/c nude mouse assessed as reduction in tumor weight at 10 mg/kg, ip qd for 12 days; format: functional, organism-based; conditions: time 12.0 day
[16] = Toxicity against BALB/c nude mouse xenografted with human HCT-116 cells assessed as body weight loss at 10 mg/kg, ip qd for 12 days and administered with 5-FU at 30 mg/kg, ip once every 3 days for 12 days and measured every 2 days; format: organism-based; conditions: in vivo, 288 h, time 12 day
HCT-116 [17] = test: Potentiation of 5-FU-induced antitumor activity against human HCT-116 cells xenografted in BALB/c nude mouse assessed as reduction in tumor weight at 10 mg/kg, ip qd for 12 days and administered with 5-FU at 30 mg/kg, ip once every 3 days for 12 days; format: functional, organism-based; conditions: time 12.0 day

Row | SMILES | Activity (HCT-116 [1]) [%] | Activity (HCT-116 [2]) | Activity (HCT-116 [3]) [%] | Activity (HCT-116 [4]) | Activity (HCT-116 [5]) | Activity (HCT-116 [6]) | Activity (HCT-116 [7]) [%] | Activity (HCT-116 [8]) | Activity (RKO) | Activity (HCT-116 [9]) | Activity (HCT-116 [10]) | Activity (HCT-116 [11]) | Activity (HCT-116 [12]) | Activity (HCT-116 [13]) | Activity [14] | Activity (HCT-116 [15]) | Activity [16] | Activity (HCT-116 [17])
1 | COc1ccc(-c2cc(=O)c3c(O)cc(O)cc3o2)cc1-c1c(O)cc(O)c2c(=O)cc(-c3ccc(O)cc3)oc12 [BILOBETIN] | 7.24 | Tde | 6.94 | Active | inactive | inactive | 1.81 | Active | Active | Active | inactive | Active | – | – | – | – | – | –
2 | COc1cc(O)c2c(=O)cc(-c3ccc(OC)c(-c4c(O)cc(O)c5c(=O)cc(-c6ccc(O)cc6)oc45)c3)oc2c1 [GINKGETIN] | 1.47 | Tde | 10.5 | Active | inactive | inactive | 1.2 | Active | Active | Active | inactive | Active | Active | Active | Non-Toxic | Active | Non-Toxic | Active
3 | COc1ccc(-c2cc(=O)c3c(O)cc(O)c(-c4cc(-c5cc(=O)c6c(O)cc(O)cc6o5)ccc4OC)c3o2)cc1 [ISOGINKGETIN] | 3.82 | Tde | 9.54 | Active | inactive | inactive | 3.37 | Active | Active | Active | inactive | Active | – | – | – | – | – | –
